As a reminder, the IC50 is the point on the concentration scale where inhibition reaches its midpoint. A low value points to higher potency. What is called Ki is a dissociation constant, usually derived from enzyme kinetics or from competition with a known ligand.

The structures appear in SMILES notation.

Holding throughout (format): biochemical
The target in assay [1] is PIM-1 (Homo sapiens, UniProt P11309). The experiment in a line: Inhibition of PIM-1, standard coupled enzyme assay. The method, then:
Reactions were carried out in 100 mM HEPES pH 7.5, 10 mM MgCl2, 25 mM NaCl, 1 mM DTT, 20 μg/ml BSA and 1.5% DMSO. […] Assays were carried out at 30° C. and 50 nM PIM-1.
An assay stock buffer solution was prepared containing all of the reagents listed above, with the exception of PIM-1, DTT, BSA and the test compound of interest. 56 μl of the test reaction was placed in a 384 well plate followed by addition of 1 μl of 2 mM DMSO stock containing the test compound (final compound concentration 30 μM). The plate was preincubated for ˜10 minutes at 30° C. and the reaction initiated by addition of 10 μl of enzyme in DTT and BSA (final concentrations: 50 nM PIM-1, 1 mM DTT, and 20 μg/ml BSA). Rates of reaction were obtained using a BioRad Ultramark plate reader (Hercules, Calif.) over a 5 minute read time at 30° C.

Assay [2] has as its target T1, GSK-3β (AA 1-420) (Homo sapiens, UniProt P49841).
T1 construct: GSK-3β (AA 1-420)
In words: Inhibition of GSK-3, standard coupled enzyme system. To be noted: 20 μM ATP, 300 μM peptide, 20 nM GSK-3β, 30° C. Here is the method: Compounds were screened for their ability to inhibit GSK-3β (AA 1-420) activity using a standard coupled enzyme system (Fox et al. (1998) Protein Sci. 7, 2249). Reactions were carried out in a solution containing 100 mM HEPES (pH 7.5), 10 mM MgCl2, 25 mM NaCl, 300 μM NADH, 1 mM DTT and 1.5% DMSO. Final substrate concentrations in the assay were 20 μM ATP (Sigma Chemicals, St Louis, Mo.) and 300 μM peptide (American Peptide, Sunnyvale, Calif.). Reactions were carried out at 30° C. and 20 nM GSK-3β. Final concentrations of the components of the coupled enzyme system were 2.5 mM phosphoenolpyruvate, 300 μM NADH, 30 μg/ml pyruvate kinase and 10 μg/ml lactate dehydrogenase. An assay stock buffer solution was prepared containing all of the reagents listed above with the exception of ATP and the test compound of interest. The assay stock buffer solution (175 μl) was incubated in a 96 well plate with 5 μl of the test compound of interest at final concentrations spanning 0.002 μM to 30 μM at 30° C. for 10 min. Typically, a 12 point titration was conducted by preparing serial dilutions (from 10 mM compound stocks) with DMSO of the test compounds in daughter plates. The reaction was initiated by the addition of 20 μl of ATP (final concentration 20 μM). Rates of reaction were obtained using a Molecular Devices Spectramax plate reader (Sunnyvale, Calif.) over 10 min at 30° C. The Ki values were determined from the rate data as a function of inhibitor concentration.

Assay [3] deals with T2, human Src kinase (Homo sapiens, UniProt P12931).
T2 construct: full length recombinant human Src kinase (from Upstate Biotechnology, cat. no. 14-117); purchased Upstate Biotechnology 14-117; host or cells: baculo viral cells (baculovirus expression)
The experiment in a line: Inhibition of SRC, radioactivity-based assay or spectrophotometric assay. The note with it: full length recombinant human Src kinase, poly Glu-Tyr substrate; assay A or B not specified. Here is the method: The compounds are evaluated as inhibitors of human Src kinase using either a radioactivity-based assay or spectrophotometric assay.
Src Inhibition Assay A: Radioactivity-based Assay
The compounds are assayed as inhibitors of full length recombinant human Src kinase (from Upstate Biotechnology, cat. no. 14-117) expressed and purified from baculo viral cells. Src kinase activity is monitored by following the incorporation of ^33P from ATP into the tyrosine of a random poly Glu-Tyr polymer substrate of composition, Glu:Tyr=4:1 (Sigma, cat. no. P-0275). The following are the final concentrations of the assay components: 0.05 M HEPES, pH 7.6, 10 mM MgCl2, 2 mM DTT, 0.25 mg/ml BSA, 10 μM ATP (1-2 μCi ^33P-ATP per reaction), 5 mg/ml poly Glu-Tyr, and 1-2 units of recombinant human Src kinase. In a typical assay, all the reaction components with the exception of ATP are pre-mixed and aliquoted into assay plate wells. Inhibitors dissolved in DMSO are added to the wells to give a final DMSO concentration of 2.5%. The assay plate is incubated at 30° C. for 10 min before initiating the reaction with ^33P-ATP. After 20 min of reaction, the reactions are quenched with 150 μl of 10% trichloroacetic acid (TCA) containing 20 mM Na3PO4. The quenched samples are then transferred to a 96-well filter plate (Whatman, UNI-Filter GF/F Glass Fiber Filter, cat no. 7700-3310) installed on a filter plate vacuum manifold. Filter plates are washed four times with 10% TCA containing 20 mM Na3PO4 and then 4 times with methanol. 200 μl of scintillation fluid is then added to each well. The plates were sealed and the amount of radioactivity associated with the filters is quantified on a TopCount scintillation counter. The radioactivity incorporated is plotted as a function of the inhibitor concentration. The data is fitted to a competitive inhibition kinetics model to get the Ki for the compound.
Src Inhibition Assay B: Spectrophotometric Assay
The ADP produced from ATP by the human recombinant Src kinase-catalyzed phosphorylation of poly Glu-Tyr substrate is quantified using a coupled enzyme assay (Fox et al (1998) Protein Sci 7, 2249). In this assay one molecule of NADH is oxidised to NAD for every molecule of ADP produced in the kinase reaction. The disappearance of NADH is conveniently followed at 340 nm.
The following are the final concentrations of the assay components: 0.025 M HEPES, pH 7.6, 10 mM MgCl2, 2 mM DTT, 0.25 mg/ml poly Glu-Tyr, and 25 nM of recombinant human Src kinase. […]
In a typical assay, all the reaction components with the exception of ATP are pre-mixed and aliquoted into assay plate wells. […] The absorbance change at 340 nm with time, the rate of the reaction, is monitored on a molecular devices plate reader. […]

For assay [4], the target named is CDK-2/Cyclin A (Homo sapiens, UniProt P24941). The experiment in a line: Inhibition of CDK-2, standard coupled enzyme assay. To be noted: 100 μM ATP, 100 μM peptide, 25 nM CDK-2/Cyclin A, 30° C. Here is the method: Compounds were screened for their ability to inhibit CDK-2/Cyclin A using a standard coupled enzyme assay (Fox et al (1998) Protein Sci 7, 2249). Reactions were carried out in 100 mM HEPES pH 7.5, 10 mM MgCl2, 25 mM NaCl, 1 mM DTT and 1.5% DMSO. Final substrate concentrations in the assay were 100 μM ATP (Sigma chemicals) and 100 μM peptide (American Peptide, Sunnyvale, Calif.). Assays were carried out at 30° C. and 25 nM CDK-2/Cyclin A. Final concentrations of the components of the coupled enzyme system were 2.5 mM phosphoenolpyruvate, 350 μM NADH, 30 μg/ml pyruvate kinase and 10 μg/ml lactate dehydrogenase.
An assay stock buffer solution was prepared containing all of the reagents listed above, with the exception of CDK-2/Cyclin A, DTT and the test compound of interest. 56 μl of the test reaction was placed in a 384 well plate followed by addition of 1 μl of 2 mM DMSO stock containing the test compound (final compound concentration 30 μM). The plate was preincubated for ˜10 minutes at 30° C. and the reaction initiated by addition of 10 μl of enzyme (final concentration 25 nM). Rates of reaction were obtained using a BioRad Ultramark plate reader (Hercules, Calif.) over a 5 minute read time at 30° C. Ki values were determined according to standard methods.

T1 sequence (P49841 whole entry, the tested form may be a part): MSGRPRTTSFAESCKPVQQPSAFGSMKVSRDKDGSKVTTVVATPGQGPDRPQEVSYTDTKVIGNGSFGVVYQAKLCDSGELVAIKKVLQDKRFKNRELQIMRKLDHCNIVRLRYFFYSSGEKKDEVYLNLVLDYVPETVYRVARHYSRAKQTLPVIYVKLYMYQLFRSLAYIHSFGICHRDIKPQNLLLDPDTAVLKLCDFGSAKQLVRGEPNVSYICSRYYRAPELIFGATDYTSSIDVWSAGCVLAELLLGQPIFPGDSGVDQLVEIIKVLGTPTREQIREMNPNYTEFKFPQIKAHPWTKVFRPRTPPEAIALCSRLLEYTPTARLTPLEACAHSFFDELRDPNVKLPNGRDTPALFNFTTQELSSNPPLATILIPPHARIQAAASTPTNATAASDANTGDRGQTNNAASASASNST
Sequence of PIM-1 (P11309 whole entry): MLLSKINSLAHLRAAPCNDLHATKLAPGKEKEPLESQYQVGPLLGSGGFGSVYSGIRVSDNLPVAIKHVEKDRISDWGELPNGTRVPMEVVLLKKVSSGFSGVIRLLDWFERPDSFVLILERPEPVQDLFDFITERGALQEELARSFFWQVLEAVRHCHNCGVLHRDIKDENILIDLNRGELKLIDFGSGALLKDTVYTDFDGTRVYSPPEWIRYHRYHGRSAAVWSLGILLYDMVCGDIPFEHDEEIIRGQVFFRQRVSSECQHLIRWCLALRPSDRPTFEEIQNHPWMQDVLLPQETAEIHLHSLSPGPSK
T2 sequence (P12931 whole entry): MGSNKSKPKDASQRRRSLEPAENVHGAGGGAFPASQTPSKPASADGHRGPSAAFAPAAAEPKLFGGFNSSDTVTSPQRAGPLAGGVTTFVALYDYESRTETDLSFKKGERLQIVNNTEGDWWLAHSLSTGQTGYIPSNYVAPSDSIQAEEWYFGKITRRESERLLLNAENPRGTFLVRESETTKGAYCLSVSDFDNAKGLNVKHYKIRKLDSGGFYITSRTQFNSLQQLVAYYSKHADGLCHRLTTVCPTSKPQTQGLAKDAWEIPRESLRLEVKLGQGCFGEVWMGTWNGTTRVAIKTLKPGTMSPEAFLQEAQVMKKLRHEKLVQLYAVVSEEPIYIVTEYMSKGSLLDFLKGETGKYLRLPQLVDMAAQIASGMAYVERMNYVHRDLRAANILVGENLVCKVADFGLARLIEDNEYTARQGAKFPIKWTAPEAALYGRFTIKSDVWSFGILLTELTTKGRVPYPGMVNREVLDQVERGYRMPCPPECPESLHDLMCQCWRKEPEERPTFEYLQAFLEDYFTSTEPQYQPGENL

`FC(F)(F)c1cccc(-c2nnc3ccc(NC4CC4)nn23)c1` [Compound I-18]: the IC50 in assay [1] was < 1000 nM. Besides, in assay [2], the Ki was < 2000 nM.

As for `Fc1cccc(-c2nnc3ccc(NC4CC4)nn23)c1` [Compound I-20], the IC50 in assay [1] was < 1000 nM.

As to `Fc1ccc(-c2nnc3ccc(NC4CC4)nn23)cc1` [Compound I-21], the IC50 in assay [1] is < 1000 nM. Further, in assay [2], the Ki is < 2000 nM.

Regarding `COc1ccc(-c2nnc3ccc(NC4CC4)nn23)cc1` [Compound I-24], the IC50 in assay [1] is < 1000 nM.

Take `FC(F)(F)c1cccc(-c2nnc3ccc(NC4CCC4)nn23)c1` [Compound I-25]: the IC50 in assay [1] was < 1000 nM. The Ki in assay [3] is < 5000 nM.

On to `FC(F)(F)c1cccc(-c2nnc3ccc(NC4CCCCC4)nn23)c1` [Compound I-26], for which the Ki in assay [3] was < 5000 nM.

Regarding `COc1cccc(-c2nnc3ccc(NC4CC4)nn23)c1` [Compound I-28], the IC50 in assay [1] was < 1000 nM. Further, in assay [3], the Ki was < 5000 nM.

As for `COc1ccccc1-c1nnc2ccc(NC3CC3)nn12` [Compound I-29], the Ki in assay [3] was < 5000 nM.

Regarding `N#Cc1ccc(-c2nnc3ccc(NCC(N)=O)nn23)cc1` [Compound I-37], in assay [2], the Ki is < 2000 nM.

In the case of `COc1ccc(-c2nnc3ccc(NCC(N)=O)nn23)cc1` [Compound I-38], in assay [2], the inhibition constant (Ki) was < 2000 nM.

For `COc1cccc(-c2nnc3ccc(NCC(N)=O)nn23)c1` [Compound I-39], the Ki in assay [2] was < 2000 nM.

As for `N#Cc1cccc(-c2nnc3ccc(NCC(N)=O)nn23)c1` [Compound I-40], in assay [2], the Ki was < 2000 nM.

As for `COc1ccccc1Nc1nnc2ccc(Sc3ccccc3)nn12` [Compound I-62], the inhibition constant Ki in assay [2] was < 2000 nM.

For `COc1ccc(Nc2nnc3ccc(OC)nn23)cc1` [Compound I-66], the Ki in assay [2] was < 2000 nM.

For the molecule `COc1ccc2nnc(Nc3ccccc3OC)n2n1` [Compound I-68], the inhibition constant Ki in assay [4] is < 2000 nM.

As to `COc1ccc2nnc(Nc3ccc(C#N)cc3)n2n1` [Compound I-73], the inhibition constant Ki in assay [4] was < 2000 nM.

In the case of `COc1ccc(Nc2nnc3ccc(OC)nn23)c(OC)c1` [Compound I-85], in assay [2], the Ki is < 2000 nM.

Consider `COc1ccc2nnc(Nc3cc(OC)c(OC)c(OC)c3)n2n1` [Compound I-86], for which the Ki in assay [2] is < 2000 nM.

For the origin of these results see patent publication US7268136B2, “Compositions useful as inhibitors of protein kinases” (Vertex Pharmaceuticals Incorporated, priority 2002, dated 2007).
